Here are results for one molecule from patent US9212204B2, “Treatment of rett syndrome using glycyl-L-2-methylprolyl-L-glutamic acid” (priority 2011, dated 2015).

Each structure is given as a SMILES string. Non-standard residues stand in square brackets, D forms with d. Residues, ends and D or L forms follow the SMILES beside them. αMeP = C[C@@]1(C(=O)O)CCCN1

One data set concerns 17 month old rats. Put plainly: 8-arm radial maze test, spatial working memory. The format is in vivo, rat. As to conditions: for Working Correct Choice WCC8-12 across days: 9-day washout. The text has this:
Five months after the original experiment the now 17 month old rats were retested for spatial working memory in a radial arm maze.
The apparatus consists of a central platform communicating with 8 identical arms, each with a food cup at the end of the arm
Rats were partially food-deprived for at least 10 days prior to, and throughout the radial maze procedure.
The maze was assembled and positioned so that the experimenter could clearly observe the rats' behavior from a predetermined location. The experimenter numbered the arms of the maze according to their orientation from one to eight in a clock-wise direction.
On day one the doors were inserted into the arms and each rat was confined in the central platform with 20 food pellets for 5 minutes. […] The following day the rats were allowed five minutes to explore the whole maze. All arms were baited with two food pellets in the food cup located at the end of each arm, and one pellet at both the entrance and middle of each arm. This was repeated for at least five, but up to eight days for rats that explored fewer than eight arms in two consecutive sessions. […] At this point it was decided that one of the old rats that had made only one arm entry on eight of the nine days should be excluded from future testing in this procedure. Otherwise all rats were included regardless of the amount of exploring they performed in pre-training.
30 days before the test (five days after pre-training) the 17 Male Wistar month old rats were implanted (under halothane anesthesia) with sub-cutaneous mini-osmotic pumps (Alzet) to dispense drug continuously for 3 weeks. At the completion of the infusion the pumps were removed and the wounds re-sutured (9-day washout allowed).
3. G-2-MePE low dose (2.4 mg/kg/day) n=13
4. G-2-MePE high dose (12.4 mg/kg/day) n=5
Saline and the low dose groups are comprised of all the rats that received those treatments in phase 1 of this experiment (when the rats were 12 months old) regardless of whether they had the one or three week treatment. One rat in each of the saline and high dose groups have been dropped because of skin tumors.
Working memory testing commenced on the ninth day of washout. Rats received 10 daily training sessions over 12 days. The procedure was the same as for pre-training but only the food cups were baited. Rats had 6 minutes to make up to 16 choices by visiting any of the eight arms. A choice was defined as occurring when all four paws were inside an arm. The experimenter recorded the sequence of arm entries with pen and paper, Sessions were terminated after all eight arms had been entered, 16 choices made, or 6 minutes had elapsed. The time taken to enter all eight arms, when this occurred, was recorded.
An arm choice was considered correct when the rat entered an arm not previously visited. […]

Data set [1] concerns subjects with an Autism Spectrum Disorder. Put plainly: Placebo-controlled crossover study in subjects with an Autism Spectrum Disorder. In kind it is in vivo, human. The text has this:
To determine whether G-2-MePE can treat symptoms of ASD, we carry out a study in human beings with ASD. Twenty subjects with an Autism Spectrum Disorder are recruited. Subjects are male and aged between 16 and 65 years (Mean=18.1 SD=3.4). All subjects have an IQ >60 and strict DSM-IV-TR diagnosis of Autistic Disorder or Asperger Disorder, Subjects also meet criteria for an Autism Spectrum Disorder according the ADI-R and ADOS-G instruments, and fulfill the proposed DSM-V criteria for and Autism Spectrum Disorder. Subjects are instructed that concomitant medications are to be stable for at least six weeks prior to study. Subjects receiving medication to treat signs of inattention are tested in the morning and instructed to take their medication in the afternoon. Subjects better treated with atypical anti-psychotic medications indicated for autism are excluded. Subjects are screened for known genetic disorders including and those with Fragile X Syndrome or tuberous sclerosis excluded. Subjects with uncontrolled epilepsy are excluded.
The study is a double blind placebo-controlled crossover study with three phases. Subjects enter each phase of the crossover in a randomized order. In the test phases, subjects receive either placebo, 10 mg/kg T.I.D oral G-2-MePE for five days, or 30 mg/kg T.I.D. oral G-2-MePE. Each phase of the crossover is separated by a washout period of fourteen days.
Subjects are tested at baseline using the following instruments: Wechsler IQ, Abberant Behavior Checklist Community Edition (ABC), Vinelands, Yale-Brown Obsessive Compulsive Scale (YBOCS) compulsion subscale, Social Responsiveness Scale (SRS), Clinical Global Impression of Severity (CGI-S) and their carers complete the Caregiver Strain Questionnaire (CSQ).
Subjects are administered two tasks—the Reading the Mind in the Eyes Test—Revised (RMET) and an Eye Tracking (ET) task, as well as Clinical Global Impression of Improvement (CGI-1). Tasks commence two hours following administration of placebo or either dose of G-2-MePE. The RMET is a computer based task that assesses one's ability to read emotions from the eyes of subtle affective facial expressions and is a widely used test of emotion recognition in patients with autism (2001). Importantly, the RMET is capable of detecting improvement with even a single dose of a pharmacological agent (Guastella et al., 2010). Eye tracking issues are characteristic of patients with autism who spend less time looking at the eyes of photographs of human faces. Again, a single administration of a pharmacologic intervention can ameliorate eye tracking deficits in autism (Andari et al, 2010).
Adverse events are also recorded using standard safety measures.
Statistically, the effect of treatment with G-2-MePE is analysed by conducting a repeated analysis of covariance (ANCOVA) on the effect of treatment on change from baseline scores.

A further data set has as its system central nervous system. The note with it: after oral administration; cited from earlier work.

As to `C[C@@]1(C(=O)N[C@@H](CCC(=O)O)C(=O)O)CCCN1C(=O)CN` [Example G-2-MePE, Glycyl-L-2-methylprolyl-L-glutamic acid] (H-Gly-[αMeP]-Glu-OH), the “Correct Choice CC8-12” value with 17 month old rats (all groups, 10 days of testing) is given as “no significant group effect”. Also, the “Working Correct Choice WCC8-12 across days” value with 17 month old rats (high dose 12.4 mg/kg/day s.c. 3 weeks) is listed as “greatest improvement across days”; in the data set on 17 month old rats (low dose 2.4 mg/kg/day s.c. 3 weeks, vs saline), “very little difference”. The “correct maze choices averaged across days” value in the data set with 17 month old rats (higher dose, vs vehicle treated rats, p<0.05, FIG. 18B) was “more correct entries”. For the same molecule, the “percent correct responses on the RMET” value in data set [1] (30 mg/kg T.I.D. oral) is listed as “increases”. Besides, the “Serious Adverse Events” value in data set [1] (10 or 30 mg/kg T.I.D. oral) is recorded as “No Serious Adverse Events”. The adverse events result in data set [1] (10 or 30 mg/kg T.I.D. oral, vs placebo) was “no more adverse events than were present during treatment with placebo”. Also, in data set [1] (ASD population), the tolerability entry was “well tolerated”. Moreover, the “performance of the RMET test” value in data set [1] (overall treatment effect) is “significant overall improvement”. For the same molecule, the “time spent looking at the eye region in the ET test” value in data set [1] (overall treatment effect) is “significant overall improvement”. Besides, the “activity in the central nervous system” value in the data set on central nervous system is “active”.
